Values joined by “and” are separate entries in the source; they are usually repeats but may differ in a detail not shown here. Equal entries are not always repeated.
Test system: 616215-338-R-J1-PDC complex spheroids, viability % test/control
Test: Anticancer human tumor 616215-338-R-J1-PDC patient-derived colon adenocarcinoma cell line growth inhibition [CLK]
Settings: for viability, T/C: stronger effect = lower value; active = viability on the fitted dose curve at most 10% of control; inactive = the rest
How it was run: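 Patient-derived tumor cells grown as complex spheroids with HUVEC endothelial cells and mesenchymal stem cells, treated with drug combinations. Concentrations descend in half-log steps from near clinical Cmax, or from 10 microM if Cmax unknown.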

[1] = curve of first compound, second compound 0.0316 µM
[2] = curve of first compound, second compound 0.1 µM
[3] = curve of first compound, second compound 0.316 µM
[4] = curve of first compound, second compound 1 µM
[5] = curve of first compound, second compound 3.16 µM
[6] = curve of first compound, second compound 10 µM
[7] = second compound 0.0316 µM, first compound 0.0316 µM
[8] = second compound 0.0316 µM, first compound 0.1 µM
[9] = second compound 0.0316 µM, first compound 0.316 µM
[10] = second compound 0.0316 µM, first compound 1 µM
[11] = second compound 0.0316 µM, first compound 3.16 µM
[12] = second compound 0.0316 µM, first compound 10 µM
[13] = second compound 0.1 µM, first compound 0.0316 µM
[14] = second compound 0.1 µM, first compound 0.1 µM
[15] = second compound 0.1 µM, first compound 0.316 µM
[16] = second compound 0.1 µM, first compound 1 µM
[17] = second compound 0.1 µM, first compound 3.16 µM
[18] = second compound 0.1 µM, first compound 10 µM
[19] = second compound 0.316 µM, first compound 0.0316 µM
[20] = second compound 0.316 µM, first compound 0.1 µM
[21] = second compound 0.316 µM, first compound 0.316 µM
[22] = second compound 0.316 µM, first compound 1 µM
[23] = second compound 0.316 µM, first compound 3.16 µM
[24] = second compound 0.316 µM, first compound 10 µM
[25] = second compound 1 µM, first compound 0.0316 µM
[26] = second compound 1 µM, first compound 0.1 µM
[27] = second compound 1 µM, first compound 0.316 µM
[28] = second compound 1 µM, first compound 1 µM
[29] = second compound 1 µM, first compound 3.16 µM
[30] = second compound 1 µM, first compound 10 µM
[31] = second compound 3.16 µM, first compound 0.0316 µM
[32] = second compound 3.16 µM, first compound 0.1 µM
[33] = second compound 3.16 µM, first compound 0.316 µM
[34] = second compound 3.16 µM, first compound 1 µM
[35] = second compound 3.16 µM, first compound 3.16 µM
[36] = second compound 3.16 µM, first compound 10 µM
[37] = second compound 10 µM, first compound 0.0316 µM
[38] = second compound 10 µM, first compound 0.1 µM
[39] = second compound 10 µM, first compound 0.316 µM
[40] = second compound 10 µM, first compound 1 µM
[41] = second compound 10 µM, first compound 3.16 µM
[42] = second compound 10 µM, first compound 10 µM
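Also: spheroids exposed to agents for 7 days.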
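For viability, T/C in this document: 100% = DMSO vehicle wells.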

CC1COCCN1c1cc(C2(S(C)(=N)=O)CC2)nc(-c2ccnc3[nH]ccc23)n1 (stereo unspecified) + CNC(=O)c1ccc(Nc2nc(OC3CCCC3)c3c(-c4ccc5nc(C)oc5c4)c[nH]c3n2)c(OC)c1
< 31.6 nM: IC50 [3] | IC50 [4] | IC50 [6]
1220 nM: IC50 [2]
> 10000 nM: IC50 [1]
inactive: viability, T/C [7] 95.5% | viability, T/C [8] 91.2% | viability, T/C [9] 90.9% | viability, T/C [10] 98.4% | viability, T/C [11] 101% | viability, T/C [12] 78.7% | viability, T/C [13] 53.4% | viability, T/C [14] 57.4% | viability, T/C [15] 52.6% | viability, T/C [16] 51.8% | viability, T/C [17] 44.8% | viability, T/C [18] 36.6% | viability, T/C [19] 48.3% | viability, T/C [20] 45.4% | viability, T/C [21] 51.5% | viability, T/C [22] 46.7% | viability, T/C [23] 56.9% | viability, T/C [24] 36.1% | viability, T/C [25] 54.5% | viability, T/C [26] 44% | viability, T/C [27] 47% | viability, T/C [28] 46.4% | viability, T/C [29] 44.5% | viability, T/C [30] 31.7% | viability, T/C [31] 49.7% | viability, T/C [32] 49.6% | viability, T/C [33] 46.3% | viability, T/C [34] 39.8% | viability, T/C [35] 37.7% | viability, T/C [36] 29.5% | viability, T/C [37] 43.1% | viability, T/C [38] 37.4% | viability, T/C [39] 40.9% | viability, T/C [40] 36.9% | viability, T/C [41] 33.3% | viability, T/C [42] 30.9%
42 nM: IC50 [5]

COC1C=CCC(C)C(C)S(=O)(=O)NC(=O)c2ccc3c(c2)N(CC2CCC21)CC1(CCCc2cc(Cl)ccc21)CO3 (stereo unspecified)
inactive: viability, T/C (compound 0.0316 µM) 42.2% and 92.1% | viability, T/C (compound 0.1 µM) 33.1% and 98.1% | viability, T/C (compound 0.316 µM) 95.7% and 96.9% | viability, T/C (compound 1 µM) 104% and 101% | viability, T/C (compound 3.16 µM) 38.7% and 103%
2050 nM and > 10000 nM: IC50 (curve of compound)

CC(C)CC(NC(=O)C(Cc1ccccc1)NC(=O)c1cnccn1)B(O)O (stereo unspecified) + CNC(=O)c1ccc(Nc2nc(OC3CCCC3)c3c(-c4ccc5nc(C)oc5c4)c[nH]c3n2)c(OC)c1
inactive: viability, T/C (second compound 0.0316 µM, first compound 0.000949 µM) 93.4% | viability, T/C (second compound 0.0316 µM, first compound 0.003 µM) 110% | viability, T/C (second compound 0.1 µM, first compound 0.000949 µM) 55.6% | viability, T/C (second compound 0.1 µM, first compound 0.003 µM) 88.9% | viability, T/C (second compound 0.316 µM, first compound 0.000949 µM) 45.9% | viability, T/C (second compound 0.316 µM, first compound 0.003 µM) 38.4% | viability, T/C (second compound 1 µM, first compound 0.000949 µM) 45.3% | viability, T/C (second compound 1 µM, first compound 0.003 µM) 29.9% | viability, T/C (second compound 3.16 µM, first compound 0.000949 µM) 45.7% | viability, T/C (second compound 3.16 µM, first compound 0.003 µM) 18.6% | viability, T/C (second compound 10 µM, first compound 0.000949 µM) 45.9% | viability, T/C (second compound 10 µM, first compound 0.003 µM) 19.5%
< 0.949 nM: IC50 [3] | IC50 [4] | IC50 [5] | IC50 [6]
active: viability, T/C (second compound 0.0316 µM, first compound 0.00949 µM) 0.37% | viability, T/C (second compound 0.0316 µM, first compound 0.03 µM) 0.24% | viability, T/C (second compound 0.0316 µM, first compound 0.0949 µM) 0.24% | viability, T/C (second compound 0.0316 µM, first compound 0.3 µM) 1.23% | viability, T/C (second compound 0.1 µM, first compound 0.00949 µM) 0.21% | viability, T/C (second compound 0.1 µM, first compound 0.03 µM) 0.22% | viability, T/C (second compound 0.1 µM, first compound 0.0949 µM) 0.18% | viability, T/C (second compound 0.1 µM, first compound 0.3 µM) 0.5% | viability, T/C (second compound 0.316 µM, first compound 0.00949 µM) 0.2% | viability, T/C (second compound 0.316 µM, first compound 0.03 µM) 0.18% | viability, T/C (second compound 0.316 µM, first compound 0.0949 µM) 0.15% | viability, T/C (second compound 0.316 µM, first compound 0.3 µM) 0.86% | viability, T/C (second compound 1 µM, first compound 0.00949 µM) 0.19% | viability, T/C (second compound 1 µM, first compound 0.03 µM) 0.15% | viability, T/C (second compound 1 µM, first compound 0.0949 µM) 1.71% | viability, T/C (second compound 1 µM, first compound 0.3 µM) 1.14% | viability, T/C (second compound 3.16 µM, first compound 0.00949 µM) 0.16% | viability, T/C (second compound 3.16 µM, first compound 0.03 µM) 0.16% | viability, T/C (second compound 3.16 µM, first compound 0.0949 µM) 0.18% | viability, T/C (second compound 3.16 µM, first compound 0.3 µM) 1.5% | viability, T/C (second compound 10 µM, first compound 0.00949 µM) 0.22% | viability, T/C (second compound 10 µM, first compound 0.03 µM) 0.18% | viability, T/C (second compound 10 µM, first compound 0.0949 µM) 1.53% | viability, T/C (second compound 10 µM, first compound 0.3 µM) 2.83%
4.28 nM: IC50 [2]
5.4 nM: IC50 [1]

C=CC(=O)N1CCN(c2nc(=O)n(-c3c(C)ccnc3C(C)C)c3nc(-c4c(O)cccc4F)c(F)cc23)C(C)C1 (stereo unspecified) + CN1CCN(c2cc(C(=O)Nc3cc4cc(-c5cnn(C)c5)ccc4cn3)ccn2)CC1
inactive: viability, T/C [7] 104% | viability, T/C [8] 116% | viability, T/C [9] 107% | viability, T/C [10] 104% | viability, T/C [11] 111% | viability, T/C [12] 102% | viability, T/C [13] 116% | viability, T/C [14] 113% | viability, T/C [15] 107% | viability, T/C [16] 114% | viability, T/C [17] 115% | viability, T/C [18] 110% | viability, T/C [19] 34.9% | viability, T/C [20] 43% | viability, T/C [21] 43.7% | viability, T/C [22] 50.9% | viability, T/C [23] 49.9% | viability, T/C [24] 28.1%
> 10000 nM: IC50 [1] | IC50 [2]
< 31.6 nM: IC50 [3] | IC50 [4] | IC50 [5] | IC50 [6]
active: viability, T/C [25] 0.2% | viability, T/C [26] 0.5% | viability, T/C [27] 0.21% | viability, T/C [28] 0.2% | viability, T/C [29] 0.15% | viability, T/C [30] 0.24% | viability, T/C [31] 0.13% | viability, T/C [32] 1.31% | viability, T/C [33] 0.14% | viability, T/C [34] 0.14% | viability, T/C [35] 0.13% | viability, T/C [36] 1.21% | viability, T/C [37] 0.17% | viability, T/C [38] 0.19% | viability, T/C [39] 0.51% | viability, T/C [40] 0.2% | viability, T/C [41] 0.2% | viability, T/C [42] 0.17%

CC(=O)O[C@H]1C(=O)[C@@]2(C)[C@H]([C@H](OC(=O)c3ccccc3)[C@]3(O)C[C@H](OC(=O)[C@H](O)[C@@H](NC(=O)c4ccccc4)c4ccccc4)C(C)=C1C3(C)C)[C@]1(OC(C)=O)CO[C@@H]1C[C@@H]2O
inactive: viability, T/C (compound 0.0316 µM) 32.9% and 37.9% | viability, T/C (compound 0.1 µM) 22.2% and 31.7% | viability, T/C (compound 0.316 µM) 18.2% and 24% | viability, T/C (compound 1 µM) 15.4% and 23.8% | viability, T/C (compound 3.16 µM) 19.5% and 23.1% | viability, T/C (compound 10 µM) 24% and 28.7%
< 31.6 nM: IC50 (curve of compound)

CC(CO)NC(=O)c1cc(-c2ccc(Cl)cc2)nn(-c2cnn(C)c2)c1=O (stereo unspecified) + CN1CCN(c2cc(C(=O)Nc3cc4cc(-c5cnn(C)c5)ccc4cn3)ccn2)CC1
active: viability, T/C [25] 0.18% | viability, T/C [26] 0.19% | viability, T/C [27] 0.23% | viability, T/C [28] 0.14% | viability, T/C [29] 0.57% | viability, T/C [30] 1.49% | viability, T/C [31] 0.15% | viability, T/C [32] 0.42% | viability, T/C [33] 0.16% | viability, T/C [34] 1.94% | viability, T/C [35] 2.32% | viability, T/C [36] 0.14% | viability, T/C [37] 1.31% | viability, T/C [38] 0.25% | viability, T/C [39] 0.22% | viability, T/C [40] 0.24% | viability, T/C [41] 1.28% | viability, T/C [42] 0.23%
inactive: viability, T/C [7] 104% | viability, T/C [8] 89.5% | viability, T/C [9] 91.5% | viability, T/C [10] 91.6% | viability, T/C [11] 93% | viability, T/C [12] 100% | viability, T/C [13] 94.7% | viability, T/C [14] 108% | viability, T/C [15] 90.6% | viability, T/C [16] 93.6% | viability, T/C [17] 97.3% | viability, T/C [18] 85.7% | viability, T/C [19] 31.3% | viability, T/C [20] 41.5% | viability, T/C [21] 26.3% | viability, T/C [22] 27.7% | viability, T/C [23] 33.1% | viability, T/C [24] 32.4%
< 31.6 nM: IC50 [3] | IC50 [4] | IC50 [5] | IC50 [6]
> 10000 nM: IC50 [1] | IC50 [2]

Source: PubChem BioAssay AID2060610 (Molecular Pharmacology Branch, DTP, NCI, 2025)
